Source: patent publication US8252764B2, “Compositions and methods of use of targeting peptides against placenta and adipose tissues” (priority 2000, dated 2012)

Experiments:
[1] = biological target: T1, β3 integrin cytoplasmic domain (Homo sapiens, UniProt P05106); experiment: Phage binding to immobilized GST-β3cyto
T1 sequence (P05106 742-788 limits assumed): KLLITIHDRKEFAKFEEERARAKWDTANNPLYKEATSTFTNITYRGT
Procedure: (§1) FIG. 18. Binding of β3 cytoplasmic domain-selected phage to immobilized proteins. GST fusion proteins or GST alone were coated on microtiter wells at 10 μg/ml and used to bind phage-expressing endostatin targeting peptides. […] The data represent the mean colony counts from triplicate wells, with standard error of less than 10% of the mean.
β3 and β5 cytoplasmic domain-binding peptides were isolated by screening multiple phage libraries with recombinant GST fusion proteins that contained either GST-β3cyto or GST-β5cyto coated onto microtiter wells. Immobilized GST was used as a negative control for enrichment during the panning of each cytoplasmic domain. Phage were sequenced from randomly selected clones after three rounds of panning as disclosed elsewhere (Koivunen et al., Biotechnology 13:265-270, 1995; Pasqualini et al., 1995). Distinct sequences were isolated that interacted specifically with the β3 or with the β5 cytoplasmic domains (Table 4). Randomly selected clones from panning rounds II and III were sequenced. […] The ratios were calculated by dividing the number of colonies recovered from β3-GST-coated wells and those recovered from GST or BSA.
The specificity of the interaction with β3 or β5 cytoplasmic domains was determined by calculating the ratios of phage bound to the cytoplasmic domain containing-fusion proteins (β3 or β5) versus GST alone (negative control). […]

[2] = biological target: T2, β5 integrin cytoplasmic domain (Homo sapiens, UniProt P18084); experiment: Phage binding to immobilized GST-β5cyto; details: phage colonies
T2 construct: screenings involving the β5 cytoplasmic domain fusion protein
T2 sequence (P18084 743-799 limits assumed): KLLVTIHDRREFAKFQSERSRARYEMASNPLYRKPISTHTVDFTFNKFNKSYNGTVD
Procedure: as §1, with “19.” for “18.”, “β5” for “β3”, “binding” for “targeting”, “error” for “error of”
β3 and β5 cytoplasmic domain-binding peptides were isolated by screening multiple phage libraries with recombinant GST fusion proteins that contained either GST-β3cyto or GST-β5cyto coated onto microtiter wells. Immobilized GST was used as a negative control for enrichment during the panning of each cytoplasmic domain. Phage were sequenced from randomly selected clones after three rounds of panning as disclosed elsewhere (Koivunen et al., Biotechnology 13:265-270, 1995; Pasqualini et al., 1995). Distinct sequences were isolated that interacted specifically with the β3 or with the β5 cytoplasmic domains (Table 4). Randomly selected clones from panning rounds II and III were sequenced. Amino acid sequences of the phagemid encoded peptides were deduced from nucleotide sequences. The ratios were calculated by dividing the number of colonies recovered from β3-GST-coated wells and those recovered from GST or BSA.
A similar strategy was used to determine the specificity of the phage isolated in the screenings involving the β5 cytoplasmic domain fusion protein.

[3] = system: chicken chorioallantoic membrane (CAM); experiment: CAM assay for angiogenesis; format: in vivo
Procedure: In vivo angiogenesis was evaluated by a CAM assay (Ribatti et al., 1994). Fertilized eggs from White Leghorn chickens were maintained in constant humidity at 37° C. On the third day of incubation, a square window was opened in the eggshell and 2-3 ml of albumen was removed to detach the developing CAM from the shell. The window was sealed with a glass plate of the same size and the eggs were returned to the incubator. At day 8, 1 mm^3 sterilized gelatin sponges (Gelfoam, Upjohn Co, Kalamazoo, […]) were adsorbed with VEGF-A (20 ng, R&D System) and either […] (SEQ ID NO:56) or control […] (SEQ ID NO:57) peptide (1 mM) in 3 μl PBS and implanted on the top of the growing CAMs under sterile conditions. CAMs were examined daily until day 12 and photographed in ovo with a Leica stereomicroscope. Capillaries emerging from the sponge were counted. The assay was repeated twice.

SK-RC-49/APA cells = experiment: Phage binding specificity assay on SK-RC-49/APA cells; format: cell-based; details: soluble peptide, not shown
Procedure: The cell binding assay was performed with an input of 10^9 TU as described for the cell panning. The specificity was confirmed by adding […] (SEQ ID NO:56) peptide to the binding medium in increasing concentrations. For phage binding on immunocaptured APA, wells were blocked for 1 h at room temperature with PBS/3% BSA and incubated with 10^9 TU for 1 h at room temperature in 50 μl PBS/3% BSA. After eight washes in PBS/1% BSA/0.01% Tween-20 and two washes in PBS, phage were rescued by adding 200 μl of exponentially growing K91Kan E. coli. Each experiment was repeated at least three times.

HUVECs [4] = experiment: HUVEC chemotaxis assay (Boyden chamber); format: cell-based, human; details: HUVECs, VEGF-A, not shown
Procedure: FIG. 33. […] (SEQ ID NO:56) inhibits HUVEC migration. HUVECs were stimulated with VEGF-A (10 ng/ml). The assay was performed in a Boyden microchemotaxis chamber, and cells were allowed to migrate through an 8-μm pore filter for 5 h at 37° C. […] (SEQ ID NO:57) (control) and […] (SEQ ID NO:56) peptides were tested at 1 mM concentration. Migrated cells were stained and five high-power fields (magnitude 100×) for each microwell were counted. Error bars are the standard error of the means of triplicate microwells.
A cell migration assay was performed in a 48-well microchemotaxis chamber (NeuroProbe, Gaithersburg, Md.) according to Bussolini et al. (1995). Polyvinylpyrrolidone-free polycarbonate filters (Nucleopore, Cambridge, Mass.) with 8-μm pores were coated with 1% gelatin for 10 min at room temperature and equilibrated in M199 medium supplemented with 2% FCS. […] (SEQ ID NO:56) or control […] (SEQ ID NO:57) peptide (1 mM) was placed in the lower compartment of a Boyden chamber in M199 medium supplemented with 2% FCS and 10 ng/ml VEGF-A (R&D System). Subconfluent cultures that had been starved overnight were harvested in PBS containing 2.5 mM EDTA, washed once in PBS, and resuspended in M199 medium containing 2% FCS at a final concentration of 2×10^6 cells/ml. […] Five random high-power fields (magnitude 100×) were counted in each well. […]

HUVECs [5] = experiment: Three-dimensional cell culture on Matrigel; format: cell-based, human; details: HUVECs on three-dimensional matrix gel, not shown
Procedure: Matrigel (Collaborative Research, Bedford, Mass.) was added at 100 μl per well to 48-well tissue culture plates and allowed to solidify for 10 min at 37° C. HUVECs were starved for 24 h in M199 medium supplemented with 2% FCS before being harvested in PBS containing 2.5 mM EDTA. 10^4 cells were gently added to each of the triplicate wells and allowed to adhere to the gel coating for 30 min at 37° C. Then, medium was replaced with indicated concentrations of […] (SEQ ID NO:56) or […] (SEQ ID NO:57) peptides in complete medium. The plates were photographed after 24 h with an inverted microscope (Canon). The assay was repeated three times.

endothelial cells = experiment: Endothelial cell migration (chemotaxis) assay with penetratin peptide chimeras; format: cell-based, human; details: 48-well microchemotaxis chamber
Procedure: FIG. 25. Effect of penetratin peptide chimeras on endothelial cell migration. Cell migration assay were performed, in a 48-well microchemotaxis chamber. Five random high-power fields (magnitude 40×) were counted in each well.
Cell migration assays were performed as follows: 48-well microchemotaxis chambers were used. Polyvinylpyrrolidone-free polycarbonate filters (Nucleopore, Cambridge, Mass.) with 8-μm pores were coated with 1% gelatin for 10 min at room temperature and equilibrated in M199 medium supplemented with 2% FCS. Peptides were placed in the lower compartment of a Boyden chamber in M199 supplemented with 2% FCS, 20 ng/ml VEGF-A (R&D System), and 1 U/ml heparin. Overnight-starved subconfluent cultures were quickly trypsinized, and resuspended in M199 containing 2% FCS at a final concentration of 2×10^6 cells/ml. After the filter was placed between lower and upper chambers, 50 μl of the cell suspension was seeded in the upper compartment. Cells were allowed to migrate for 5 h at 37° C. in a humidified atmosphere with 5% CO2. The filter was then removed, and cells on the upper side were scraped with a rubber policeman. […] Five random high-power fields (magnitude 40×) were counted in each well.
Cell migration was assayed in a 48-well microchemotaxis chamber. […] Five random high-power fields (magnitude 40×) were counted in each well.

With AGWLYMSWK the “β3/BSA Ratio” value ([1]; phage colonies recovered from β3-GST-coated wells divided by BSA) was 2.4 and the “β3/GST Ratio” value ([1]; phage colonies recovered from β3-GST-coated wells divided by GST) was 1.8.
For CKLWQEDGY, the “β5/BSA Ratio” value ([2]; β5 versus BSA) was 665 and the “β5/GST Ratio” value ([2]; β5 versus GST) was 1.8.
GACVRLSACGA [reference compound] was tested, and the “BLOOD VESSEL NUMBERS” value ([3]; VEGF-A 20 ng, peptide 1 mM, mean and standard error, two experiments) was 56.5 ± 2.12, the “effect on the number of growing vessels” value ([3]; not shown) was “no effect on the number of growing vessels” and the “competition with CPKVCPRECESNC phage for binding to SK-RC-49/APA cells” value (SK-RC-49/APA cells) was “no competitive activity”. For the same sequence, the “effect on cell migration or proliferation” value (HUVECs [4]) was “no significant effect on cell migration or proliferation” and the “formation of capillary-like network” value (HUVECs [5]) was “did not affect HUVEC morphogenesis”.
GLDTYRGSP was tested, and the “effect on endothelial cell migration” value (endothelial cells) was “increase cell migration”.
With SDNRYIGSW the “effect on endothelial cell migration” value (endothelial cells) was “increase cell migration”.
